Consider eleven compounds from US20220305121A1, “N-ARYL SULFONAMIDE DERIVATIVES AS VACCINE ADJUVANT” (The Regents of the University of California, priority 2019, published 2022).

Assay type in all cases: cell-based
One data set has as its system NF-κB. Kind of data set: Measurement of NF-κB activation using THP1-Blue NF-κB cells (SEAP reporter, LPS as primary stimulus). The protocol: (§1) THP1-Blue™ NF-κB cells were plated in 96-well plates at 10^5 cells/well in 100 μl RPMI supplemented with 10% fetal bovine serum (FBS, Omega Scientific, Inc., Tarzana, Calif.), 100 U/mL penicillin, 100 μg/ml streptomycin (Thermo Fisher Scientific) and Normocin (Invivogen). LPS was prepared in assay medium at a concentration of 20 μg/mL. Tested compounds were dissolved in DMSO at 1 mM as a stock solution and were further diluted in the LPS solution to a final concentration of 10 μM. 100 μL of this solution was then transferred to the plated cells to obtain a final concentration of LPS at 10 μg/mL and compound at 5 μM ([…]). The culture supernatants were harvested after a 20 hour incubation period, SEAP activity in the culture supernatants was determined by a colorimetric assay using QuantiBlue (Invivogen). Plate absorbance was read at 630 nm using a Tecan Infinite M200 plate reader (Männedorf, Switzerland). The SEAP concentration was directly proportional to NF-κB activity, which was 2-point normalized to yield activity of compound 1+LPS as 200% and activity for LPS as 100%.
(§2) Measurement of NF-κB Activation Using THP1-Blue NF-κB Cells. THP1-Blue NF-κB cells were plated in 96-well plates at 10^5 cells/well in 100 μL of RPMI supplemented with 10% fetal bovine serum (FBS, Omega Scientific, Inc., Tarzana, Calif.), 100 U/mL penicillin, 100 μg/mL streptomycin (Thermo Fisher Scientific), and Normocin (Invivogen). LPS was prepared in assay medium at a concentration of 20 μg/mL. Tested compounds were dissolved in DMSO at 1 mM as a stock solution and were further diluted in the LPS solution to a final concentration of 10 μM. 100 μL of this solution was then transferred to the plated cells to obtain a final concentration of LPS at 10 μg/mL and compound at 5 μM ([…]). The culture supernatants were harvested after a 20 hours incubation period. SEAP activity in the culture supernatants was determined by a colorimetric assay using QuantiBlue (Invivogen). Plate absorbance was read at 630 nm using a Tecan Infinite M200 plate reader (Mannedorf, Switzerland). The SEAP concentration was directly proportional to NF-κB activity, which was two-point normalized to yield activity of compound 1+LPS as 200% and activity for LPS as 100%.

The next data set relates to ISRE. The experiment in a line: Measurement of ISRE activity in ISRE-bla THP-1 cells (FRET, IFN-α as primary stimulus). Particulars: for activity at 5 µM: read-out: ISRE % Activation; for ISRE activity (in words): with IFN-α. The protocol:
(§3) ISRE-bla THP-1 cells were plated in 96-well plates at 5×10^4 cells/well in 50 μl RPMI supplemented with 10% dialyzed FBS (Atlanta Biologicals, Inc., GA), 0.1 mM nonessential amino acids, 1 mM sodium pyruvate, 100 U/mL penicillin and 100 μg/ml streptomycin. Type I IFN-α (R&D Systems, #11200-2) solution was prepared in assay medium at a concentration of 200 U/mL Tested compounds were dissolved in DMSO at 1 mM and were further diluted in the IFN-α solution to a final concentration of 10 μM. 50 μL of this solution was then transferred to the plated cells to obtain a final concentration of IFN-α at 100 U/mL and compound at 5 μM ([…]), The cells were incubated for 16 hours, after which 20 μL of 6×LiveBLAzer™ FRET B/G Substrate (CCF4-AM) mixture (prepared according to the manufacturer's instructions) was added to each well, Plates were incubated at room temperature in the dark for 3 hours. Fluorescence was measured on a Tecan Infinite M200 plate reader at an excitation wavelength of 405 nm, and emission wavelengths of 465 nm and 535 nm. Background values (cell free wells at the same fluorescence wavelength) were subtracted from the raw fluorescence intensity values and the emission ratios were calculated as the ratio of background subtracted fluorescence intensities at 465 nm to background subtracted fluorescence intensities at 535 nm. The ISRE activity values for these compounds were 2-point normalized to yield activity of compound 1+IFN-α as 200% and activity for IFN-α as 100%.
Measurement of ISRE Activity in ISRE-bla THP-1 Cells. ISREbla THP-1 cells were plated in 96-well plates at 5×10^4 cells/well in 50 μL of RPMI supplemented with 10% dialyzed FBS (Atlanta Biologicals, Inc., GA), 0.1 mM nonessential amino acids, 1 mM sodium pyruvate, 100 U/mL penicillin, and 100 μg/mL streptomycin. Type I IFN-α (R&D Systems, no. 11200-2) solution was prepared in assay medium at a concentration of 200 U/mL. Tested compounds were dissolved in DMSO at 1 mM and were further diluted in the IFN-α solution to a final concentration of 10 μM. 50 μL of this solution was then transferred to the plated cells to obtain a final concentration of IFN-α at 100 U/mL and compound at 5 μM ([…]). The cells were incubated for 16 hours, after which 20 μL of 6×LiveBLAzer FRET B/G substrate (CCF4-AM) mixture (prepared according to the manufacturer's instructions) was added to each well. Plates were incubated at room temperature in the dark for 3 hours. Fluorescence was measured on a Tecan Infinite M200 plate reader at an excitation wavelength of 405 nm and emission wavelengths of 465 and 535 nm. Background values (cell free wells at the same fluorescence wavelength) were subtracted from the raw fluorescence intensity values and the emission ratios were calculated as the ratio of background subtracted fluorescence intensities at 465 nm to background subtracted fluorescence intensities at 535 nm. The ISRE activity values for these compounds were two-point normalized to yield activity of compound 1+IFN-α as 200% and activity for IFN-α as 100%.

For a further data set, the system named is THP-1 cells. The experiment in a line: Cell viability assay (MTT). Particulars: compound 5 μM, 18 hours incubation; normalized to DMSO as 100%; mean. As for the experimental part:
THP-1 cells were plated in 96-well plates (10^5 cells/well) in 100 μL RPMI supplemented with 10% FBS, 100 U/mL penicillin and 100 μg/ml streptomycin. Compounds were dissolved in DMSO at 1 mM stock solution and were further diluted to 10 μM in the assay medium. 100 μL of this solution was added to the cells to obtain a final compound concentration of 5 μM ([…]). After 18 hours incubation, a solution of MTT in assay media (0.5 mg/mL) was added to each well and further incubated for 4 to 6 hours, followed by addition of cell lysis buffer (15% w/v SDS and 0.12% v/v 12N HCl aqueous solution), incubated overnight, and then absorbance measured at 570 nm using 650 nm as reference using Tecan Infinite M200 plate reader.
Cell Viability Assay. THP-1 cells were plated in 96-well plates (10^5 cells/well) in 100 μL RPMI supplemented with 10% FBS, 100 U/mL penicillin, and 100 μg/mL streptomycin. Compounds were dissolved in DMSO at 1 mM stock solution and were further diluted to 10 μM in the assay medium. 100 μL of this solution was added to the cells to obtain a final compound concentration of 5 μM ([…]). After 18 h incubation, a solution of MTT in assay media (0.5 mg/mL) was added to each well and further incubated for 4-6 hours, followed by addition of cell lysis buffer (15% w/v SDS and 0.12% v/v 12 N HCl aqueous solution), incubation overnight, and then absorbance was measured at 570 nm using 650 nm as reference using Tecan Infinite M200 plate reader.

In the next data set the test system is NF-κB and ISRE. The experiment in a line: NF-κB and ISRE reporter assays (primary screens), statements in words for both assays. The following applies: with LPS or IFN-α as primary stimulus; compared to compound 1. The protocol:
as §1, §3, §2
Measurement of ISRE Activity in ISRE-bla THP-1 Cells. […]

Setting [1] is: compound 5 μM + LPS, 20 hour incubation, two point normalized: compound 1 + LPS = 200%, LPS = 100%, mean.
Setting [2] is: Homo sapiens, THP-1, compound 5 μM + IFN-α 100 U/mL, 16 hours, two point normalized: compound 1 + IFN-α = 200%, IFN-α = 100%, mean.

The structures appear in SMILES notation. Entries after “also recorded” stand apart in the source; their conditions may differ.

On to `CCOc1ccc(S(=O)(=O)Nc2cc(OC)c(Br)cc2OC)cc1` [Compound 7, N-(4-bromo-2,5-dimethoxyphenyl)-4-ethoxybenzenesulfonamide], for which the activity at 5 µM in the data set with NF-κB (setting [1]) turned out to be 176%; in the data set with ISRE (setting [2]), 235%. Besides, in the data set with ISRE, the “ISRE activity (in words)” value is on record as “slightly skewed ISRE activity”. Moreover, in the data set on THP-1 cells, the “MTT % Viability” value was 68.8%. In the data set with NF-κB and ISRE, the “activity in NF-κB and ISRE assays (in words)” value was “retained activity”.

On to `CCOc1ccc(S(=O)(=O)Nc2cc(OC)c(Cl)c(OC)c2)cc1` [Compound 8, N-(4-chloro-3,5-dimethoxyphenyl)-4-ethoxybenzenesulfonamide], for which the activity at 5 µM in the data set on NF-κB (setting [1]) stood at 179%; with ISRE (setting [2]), 218%. In the data set on ISRE, the “ISRE activity (in words)” value is “slightly skewed ISRE activity”. In the data set with THP-1 cells, the “MTT % Viability” value amounted to 71.4%. In the data set on NF-κB and ISRE, the “activity in NF-κB and ISRE assays (in words)” value was “complete loss of activity”.

As to `COc1cc(NS(=O)(=O)c2ccc(O)cc2)c(OC)cc1Cl` [Compound 11, N-(4-chloro-2,5-dimethoxyphenyl)-4-hydroxybenzenesulfonamide], the activity at 5 µM in the data set with NF-κB (setting [1]) was 98%; in the data set with ISRE (setting [2]), 104%. The “MTT % Viability” value in the data set with THP-1 cells is recorded as 85.2%. For the same compound, the “activity in NF-κB and ISRE assays (in words)” value with NF-κB and ISRE is reported as “not tolerated”.

As a reminder, the EC50 is the midpoint of the concentration-response curve. On to `COc1ccc(S(=O)(=O)Nc2cc(OC)c(Cl)cc2OC)cc1` [Compound 12, N-(4-chloro-2,5-dimethoxyphenyl)-4-methoxybenzenesulfonamide], for which the activity at 5 µM was 226% in the data set on NF-κB (setting [1]) and 219% in the data set on ISRE (setting [2]). For the same compound, the EC50 with NF-κB (dose response in the presence of LPS) was 1850 nM; with ISRE (Homo sapiens, THP-1, dose response in the presence of IFN-α), 1400 nM. For the same compound, the “MTT % Viability” value in the data set on THP-1 cells worked out at 69.6%. Also, in the data set on NF-κB and ISRE, the “activity in NF-κB and ISRE assays (in words)” value is recorded as “tolerated; also recorded: retained activity”.

As to `CCCOc1ccc(S(=O)(=O)Nc2cc(OC)c(Cl)cc2OC)cc1` [Compound 13, N-(4-chloro-2,5-dimethoxyphenyl)-4-propoxybenzenesulfonamide], the activity at 5 µM in the data set on NF-κB (setting [1]) is 149%; with ISRE (setting [2]), 125%. Moreover, in the data set on THP-1 cells, the “MTT % Viability” value was found to be 71.3%. The “activity in NF-κB and ISRE assays (in words)” value with NF-κB and ISRE is given as “weakly active; also recorded: retained activity”.

As for `C#CCOc1ccc(S(=O)(=O)Nc2cc(OC)c(Cl)cc2OC)cc1` [Compound 15, N-(4-chloro-2,5-dimethoxyphenyl)-4-(prop-2-yn-1-yloxy) benzenesulfonamide], in the data set on NF-κB (setting [1]), the “NF-κB % Activation” value is reported as 97%. Moreover, the “ISRE % Activation” value in the data set on ISRE (compound 5 μM + IFN-α 100 U/mL, 16 hours, two point normalized: compound 1 + IFN-α = 200%, IFN-α = 100%, mean) amounted to 99%. Further, in the data set on THP-1 cells, the “MTT % Viability” value is 80.9%. In addition, the “activity in NF-κB and ISRE assays (in words)” value with NF-κB and ISRE is “inactive”.

In the case of `CCCc1ccc(S(=O)(=O)Nc2cc(OC)c(Cl)cc2OC)cc1` [Compound 16, N-(4-chloro-2,5-dimethoxyphenyl)-4-propylbenzenesulfonamide], the results for the activity at 5 µM with NF-κB (setting [1]) and in the data set on ISRE (setting [2]) were 102% and 103%, respectively. The “MTT % Viability” value in the data set with THP-1 cells turned out to be 85.7%. Further, the “activity in NF-κB and ISRE assays (in words)” value in the data set on NF-κB and ISRE was “loss of activity”.

Take `COc1cc(NS(=O)(=O)c2ccc(Oc3ccccc3)cc2)c(OC)cc1Cl` [Compound 22, N-(4-chloro-2,5-dimethoxyphenyl)-4-phenoxybenzenesulfonamide]: the values for the activity at 5 µM in the data set on NF-κB (setting [1]) and in the data set with ISRE (setting [2]) were 98% and 95%, respectively. Also, the “MTT % Viability” value with THP-1 cells is listed as 91.3%. For the same compound, the “activity in NF-κB and ISRE assays (in words)” value in the data set with NF-κB and ISRE was “inactive”.

In the case of `COc1cccc(S(=O)(=O)Nc2cc(OC)c(Cl)cc2OC)c1` [Compound 23, N-(4-chloro-2,5-dimethoxyphenyl)-3-methoxybenzenesulfonamide], the activity at 5 µM with NF-κB (setting [1]) amounted to 116%; with ISRE (setting [2]), 104%. Further, in the data set on THP-1 cells, the “MTT % Viability” value is 79.6%. In the data set with NF-κB and ISRE, the “activity in NF-κB and ISRE assays (in words)” value is “none of these molecules were active”.

Consider `COc1cc(NS(=O)(=O)c2ccccc2OC)c(OC)cc1Cl` [Compound 24, N-(4-chloro-2,5-dimethoxyphenyl)-2-methoxybenzenesulfonamide], for which the activity at 5 µM in the data set with NF-κB (setting [1]) was 96%; in the data set on ISRE (setting [2]) it was 101%. Moreover, in the data set on THP-1 cells, the “MTT % Viability” value is recorded as 92.1%. In the data set on NF-κB and ISRE, the “activity in NF-κB and ISRE assays (in words)” value is listed as “none of these molecules were active”.

In the case of `CCOc1ccc(S(=O)(=O)Nc2cc(OC)c(Cl)cc2OC)cc1Br` [Compound 25, 3-Bromo-N-(4-chloro-2,5-dimethoxyphenyl)-4-ethoxybenzenesulfonamide], the activity at 5 µM was found to be 87% with NF-κB (setting [1]) and 101% with ISRE (setting [2]). Besides, in the data set with THP-1 cells, the “MTT % Viability” value is reported as 85.0%. Moreover, in the data set on NF-κB and ISRE, the “activity in NF-κB and ISRE assays (in words)” value is “inactive”.
